Source: US20170152490A9, “USE OF ACTIVIN RECEPTOR-LIKE KINASE 1 (ALK-1) ANTAGONISTS IN THE TREATMENT OF CANCER” (Acceleron Pharma, Inc., priority 2014, published 2017)
Entries after “also recorded” stand apart in the source; their conditions may differ.

Assays:
[1] = tested on: RPMI2650 xenograft (Nasal Septum Carcinoma cells, ATCC# CCL-30); test: RPMI2650 head and neck carcinoma xenograft, tumor growth; assay type: in vivo, Mus musculus (Hsd: Athymic Nude-Foxn1nu); conditions: for TGI (tumor growth inhibition): day 30, after 3 weeks of dosing; for TGI (tumor growth inhibition) / GMDV (geo mean of final tumor volume/geo mean of initial tumor volume): ACE-041 10 mg/kg i.p. tiw, cisplatin 5 mg/kg i.v. qw; for GMDV (geo mean of final tumor volume/geo mean of initial tumor volume): day 30
Method: Tumor implantation. RPMI2650 (ATCC #CCL-30) were grown in Eagle's Minimum Essential Medium (ATCC Cat. No 30-2003), supplemented with fetal bovine serum (Gibco, Cat. No 26140) to a final concentration of 10%. Cell were harvested by mild trypsin digestion, washed in SFM and resuspended at a concentration of 50×10E6/ml in SFM. 0.1 ml (5×10E6 cells) of the cell suspension was injected subcutaneously in the right flank of a nude mouse.
Tumor measurement. Tumor size was measured manually using digital calipers. Tumor volume was calculated using the formula for a modified ellipse ((Length*Width2)/2).
Data Analysis. […] TGI was calculated according to the formula:
TGI=(GMDV(C)−GMDV(T))*100/(GMDV(C)−1), where GMDV=Geomean(final volumes)/Geomean(intitial volumes)

[2] = cited from earlier work; for typical maximum tolerated dose: body surface
[3] = Animal body weight / tolerability in the RPMI2650 xenograft study; conditions: for Average changes in body weight: ACE-041 10 mg/kg i.p. tiw
Method: Nasal Septum Carcinoma cells (RPMI2650, ATCC# CCL-30) were injected subcutaneously in the right flank (5×10E6 in 0.1 ml of SFM) of 8-week old female mice. Nine days following implantation animals were randomized into 4 groups based on tumor volume. Animal dosing and tumor measurement was done three times a week.
Data Analysis. Graphing and statistical analysis of the tumor volume and body weight data was done using GraphPad Prism 5 software (GraphPad Software Inc., La Jolla, Calif.). Unpaired two-tailed t-test (with or w/o Welch correction) was used to determine statistical significance.

[4] = tested on: recurrent or metastatic squamous cell carcinoma of the head and neck (SCCHN); test: Phase 2 study of Dalantercept in recurrent or metastatic SCCHN; assay type: in vivo, human
Method: Methods: 46 patients were enrolled and received Dalantercept SC Q3W at 80 mg (n=2), 0.6 mg/kg (n=13), and 1.2 mg/kg (n=31) until disease progression or unacceptable toxicity. Archived and optional biopsies and serum were collected for PD (pharmacodynamic) studies . The primary endpoint was response rate (RR) per RECIST 1.1 and secondary endpoints included progression free survival and overall survival. Key eligibility: recurrent or metastatic SCCHN of mucosal origin, >1 one prior platinum regimen, ECOG performance status ≦1, and no prior anti-angiogenic therapy.

[5] = tested on: advanced, refractory solid tumors including SCCHN; test: Phase 1 study of dalantercept in patients with advanced, refractory solid tumors; assay type: in vivo, human; conditions: patients incl. SCCHN
[6] = Day 9 (randomization, start of dosing), s.c. RPMI2650 xenograft, nude mice
[7] = Day 30, ACE-041 10 mg/kg i.p. tiw x3, cisplatin 5 mg/kg i.v. qw x3
[8] = day 30, cisplatin 5 mg/kg i.v. qw

Compound	Tumor volume (geo mean) [1, 6]	Tumor volume (geo mean) [1, 7]	TGI (tumor growth inhibition) [1]	GMDV (geo mean of final tumor volume/geo mean of initial tumor volume) [1]	typical maximum tolerated dose [2]	maximum tolerated dose ([2]; typical, most patients)	Average changes in body weight [3, 8]	cumulative body weight loss on average [3, 8]	body weight loss of some animals (as much as) ([3]; individual animals, triggered termination of the study)	proportion of patients with stable disease (SD) >3 cycles ([4]; 0.6 mg/kg SC Q3W (n=3))	proportion of patients with stable disease (SD) >3 cycles ([4]; 1.2 mg/kg SC Q3W (n=10))	patients achieving a partial response (PR), RECIST 1.1 ([4]; 1 patient at 1.2 mg/kg SC Q3W, 41 evaluable patients)	frequency of grade >3 related AEs ([4]; 46 patients enrolled, SC Q3W)	most common drug-related adverse events (in words) ([4]; grade 1-2)	clinical activity (in words) ([5]; listed as Dalantercept)	clinical activity (in words) ([5]; listed as dalantercept)	toxicity as monitored by changes in animal body weight (in words) ([3]; dosing period to day 30)
N.N.[Cl][Pt][Cl] [Cisplatin, cisplatin]	185.8 mm3	1001 mm3	35%	5.4	60-100 mg/m^2	about 5 mg/kg/day	−12.9%	~13%	≤ 20%								
N.N.O=C([O-])C1(C(=O)[O-])CCC1.[Pt+2] [Carboplatin]					600-800 mg/m^2												
N.N.N.N.N.N.NCCCCCCN.NCCCCCCN.[Cl-].[Cl-].[Pt+2].[Pt+2].[Pt+2] [Triplatin]					0.9-1.1 mg/m^2												
ACE-041: Soluble ALK1-IgG1 fusion protein (ALK1 extracellular domain-Fc), see SEQ ID NO: 3; ligand trap to BMP 9 and 10	181.4 mm3	1024 mm3	32%	5.6			9.1%			23%	37%	2.4%	13%	anemia, fatigue, peripheral edema, headache, hyponatremia, and pleural effusion	demonstrated activity in a subset of patients with SCCHN	signs of clinical activity; also recorded: stable disease	did not show any sign of acute toxicity
